These are literature values, as cited in US20150018320A1, “Hormone Containing Emulsion Comprising Krill Phospholipids” (B. Braun Melsungen AG, priority 2012, published 2015).

The test system of the data set is TBI patients. Particulars: two clinical trials.

As to `CC(=O)[C@H]1CC[C@H]2[C@@H]3CCC4=CC(=O)CC[C@]4(C)[C@H]3CC[C@]12C` [progesterone, pregn-4-ene-3,20-dione], the mortality result is listed as “decreased mortality”; the safety and tolerability entry was “safe and well tolerated”.
